Results reported in article PMC5771238 (Neuropharmacology, 2017).
Like-named read-outs stand apart in the source and are kept apart here.

Columns and labels:
CB1 receptor [1] = molecular target: T1, CB1 receptor (Mus musculus, UniProt P47746)
CB1 receptor [2] = molecular target: T1, CB1 receptor; assay: [3H]CP55,940 specific binding
C57/Bl6J mice = assay: THC drug discrimination; assay type: in vivo, mouse; conditions: for effect on response rates / effect on THC's discriminative stimulus effects / substitution for THC when administered alone: second group; for effect on THC's discriminative stimulus effects: modulators 10 mg/kg, rimonabant 1 mg/kg with 5.6 mg/kg THC
CB1 receptor [3] = molecular target: T1, CB1 receptor; assay: THC-stimulated [35S]GTPγS binding in mouse cerebellar membranes; assay type: biochemical; conditions: pregnenolone 1 – 10 μM
ICR mice = assay: Cannabinoid tetrad tests; assay type: in vivo, mouse; conditions: for effect on THC's effects on activity, hypothermia, catalepsy / effect on THC's anti-nociceptive effect: 10 mg/kg modulator i.p. 10 min before 30 mg/kg THC; for effect on THC's anti-nociceptive effect: tail flick
CB1 receptor [4] = molecular target: T1, CB1 receptor; assay: CP55,940-stimulated [35S]GTPγS binding in mouse cerebellar membranes; assay type: biochemical; conditions: for alpha ± SEM (binding cooperativity with CP55,940) / beta ± SEM (efficacy modifier): allosteric operational model, logKA=−6.6, Emax=100, TA=14, TB=0, n=1, LogKB from [3H]SR141716 binding
mice = assay: Feeding in mice; assay type: in vivo, mouse; conditions: 30 mg/kg; unpublished results
CB1 receptor [5] = molecular target: T1, CB1 receptor; assay: biochemical; conditions: pKB ± SEM
[6] = 1 nM [3H]SR141716, allosteric ternary complex model, no GDP
[7] = 3 parameter non-linear regression

T1 sequence (P47746 whole entry): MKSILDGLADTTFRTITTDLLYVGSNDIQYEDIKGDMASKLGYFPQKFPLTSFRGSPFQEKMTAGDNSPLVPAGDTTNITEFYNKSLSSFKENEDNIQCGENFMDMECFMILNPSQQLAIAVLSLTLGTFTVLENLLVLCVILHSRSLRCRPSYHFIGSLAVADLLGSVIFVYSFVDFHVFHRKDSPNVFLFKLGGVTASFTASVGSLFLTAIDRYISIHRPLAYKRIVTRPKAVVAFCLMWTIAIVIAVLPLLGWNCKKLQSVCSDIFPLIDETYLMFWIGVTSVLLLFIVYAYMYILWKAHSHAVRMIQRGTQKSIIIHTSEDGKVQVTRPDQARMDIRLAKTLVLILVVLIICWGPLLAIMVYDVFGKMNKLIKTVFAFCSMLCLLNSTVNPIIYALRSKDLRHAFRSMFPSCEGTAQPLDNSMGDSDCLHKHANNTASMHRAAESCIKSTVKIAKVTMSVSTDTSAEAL

| Compound | logα ± SEM (cooperativity with [3H]SR141716) (CB1 receptor [1]; [6]) | Top ± SEM (maximal increase in specific binding of [3H]CP55,940) (CB1 receptor [2]; [7]) | effect on response rates (C57/Bl6J mice) | effect on THC's discriminative stimulus effects (C57/Bl6J mice) | effect on THC-stimulated [35S]GTPγS binding (CB1 receptor [3]) | effect on THC's effects on activity, hypothermia, catalepsy (ICR mice) | effect on THC's anti-nociceptive effect (ICR mice) | alpha ± SEM (binding cooperativity with CP55,940) (CB1 receptor [4]) | beta ± SEM (efficacy modifier) (CB1 receptor [4]) | substitution for THC when administered alone (C57/Bl6J mice) | other results |
| --- | --- | --- | --- | --- | --- | --- | --- | --- | --- | --- | --- |
| N#Cc1ccc(NC(=O)Nc2cccc(-c3cccc(N4CCCC4)n3)c2)cc1 [RTICBM-28] | −1.13 ± 0.18 | 477.5 ± 15.14 | Neither compound decreased response rates | lowered THC potency | produced insurmountable antagonism | did not alter | but not RTICBM-15 or RTICBM-28, decreased THC’s anti-nociceptive effect | 201.1 ± 11.95 | 0.001 ± 0.001 | – | pKB ± SEM (CB1 receptor [1]; [6]): 6.65 ± 0.11; pKB ± SEM (CB1 receptor [1]; in presence of 30 μM GDP): 5.86 ± 0.10; pEC50 ± SEM for increase in specific binding of [3H]CP55,940 (CB1 receptor [2]; [7]): 6.61 ± 0.07; pIC50 ± SEM (CB1 receptor [4]; CP55,940 10 nM): 7.34 ± 0.05; pIC50 ± SEM (CB1 receptor [4]; CP55,940 1 μM): 7.72 ± 0.03; pIC50 ± SEM (CB1 receptor [4]; CP55,940 10 μM): 7.59 ± 0.03 |
| CCNC1(C(N)=O)CCN(c2ncnc3c2nc(-c2ccccc2Cl)n3-c2ccc(Cl)cc2)CC1 [otenabant] | – | – | significantly decreased response rates | blocked THC’s discriminative stimulus effects | – | – | – | – | – | without substituting themselves when administered alone | – |
| CC(=O)[C@H]1CC[C@H]2[C@@H]3CC=C4C[C@@H](O)CC[C@]4(C)[C@H]3CC[C@]12C [pregnenolone] | – | – | – | – | – | – | – | – | – | – | substitution and response rate effects in combination with vehicle (C57/Bl6J mice; first group, compound alone): neither compound produced substitution or response rate effects; effect on THC's effects in the cannabinoid tetrad (ICR mice; stated in abstract only): did not block THC’s effects |
| O=C(Nc1ccc(Cl)cc1)Nc1cccc(-c2cccc(N3CCCC3)n2)c1 [PSNCBAM-1, 1-(4-chlorophenyl)-3-{3-[6-(pyrrolidin-1-yl)pyridin-2-yl]phenyl}urea] | −0.73 ± 0.12 | 419.1 ± 8.75 | Neither compound decreased response rates | did not alter THC’s discriminative stimulus effects | produced insurmountable antagonism | did not alter | decreased THC’s anti-nociceptive effect | 55.01 ± 3.76 | 0.003 ± 0.001 | – | EC50 (CB1 receptor [2]): 295 nM; IC50 (CB1 receptor [4]; IC50, at 100 nM CP55,940): 49.2 nM; IC50 (CB1 receptor [4]; pIC50 ± SEM, CP55,940 10 nM): 83.2 nM; IC50 (CB1 receptor [4]; pIC50 ± SEM, CP55,940 1 μM): 39.8 nM; IC50 (CB1 receptor [4]; pIC50 ± SEM, CP55,940 10 μM): 50.1 nM; effect on feeding in mice (mice): did not observe an effect; Kb (CB1 receptor [5]; [6]): 195 nM; Kb (CB1 receptor [5]; in presence of 30 μM GDP): 1820 nM |
| Cc1c(C(=O)NN2CCCCC2)nn(-c2ccc(Cl)cc2Cl)c1-c1ccc(Cl)cc1 [SR141716, rimonabant] | – | – | significantly decreased response rates | blocked THC’s discriminative stimulus effects | – | – | – | – | – | without substituting themselves when administered alone | effect on locomotor activity in combination with THC (ICR mice; 3 mg/kg rimonabant and 30 mg/kg THC): increased activity; reversal of THC-induced antinociception, hypothermia, catalepsy (ICR mice; 3 mg/kg rimonabant i.p. before 30 mg/kg THC): rimonabant-reversible; effect on locomotor activity, anti-nociception, rectal temperature, catalepsy when followed by vehicle injection (ICR mice; 10 mg/kg modulator or 3 mg/kg rimonabant i.p., vs vehicle/vehicle): did not have any effect |
| CCCCCc1cc(O)c2c(c1)OC(C)(C)[C@@H]1CCC(C)=C[C@@H]21 [THC, delta-9-tetrahydrocannabinol] | – | – | – | – | – | – | – | – | – | – | effect on locomotor activity (ICR mice; THC 30 mg/kg i.p. with vehicle): did not affect locomotor activity; tetrad effects: antinociception, hypothermia, catalepsy (ICR mice; THC 30 mg/kg i.p. with vehicle): produced rimonabant-reversible antinociception (Figure 4B), hypothermia (Figure 4C), and catalepsy (Figure 4D) |
